Data taken from patent US10166237B2, “Compounds and methods for inducing chondrogenesis” (The Scripps Research Institute, priority 2011, dated 2019).

Each compound was assayed on human mesenchymal stem cells (hMSCs) (assay: chondrogenic nodule formation by hMSCs (high throughput screen)). Conditions: not given.
Assay type: cell-based
Description: The primary screening assay was based upon the development of chondrogenic nodules. Chondrocytes can grow in monolayer in vitro, but to more closely mimic their native environment in the joint, the cells are routinely cultured in non-adherent conditions such as in pellet cultures or alginate bead suspensions.
In the actual screen of a library of 22,000 structurally diverse heterocycles, 10^4 primary hMSCs were plated in 384 well plates in serum free DMEM. The cells were treated with 5 μM of each compound and incubated for 4 days. […] To facilitate high throughput imaged-based detection, the chondrogenic nodules were stained with […]. The Nile Red stained nodules were quantified on an Acumen eX3 (high content imaging device) by excitation with a 488 laser for rapid detection of the nodules.
Primary hMSCs grown in a 96 well Greiner plates (50,000/well) were incubated for 4 days in the presence of the 5 uM of each DMSO or 100 nM of PRO1. On day 4, the cells were fixed with 4% formalin for 10 minutes, washed and stained with 1 μg/ml of Rhodamine B for 2 hours at room temperature.

Compound	Activity (chondrogenic nodules formed in % of cells)
O=C(O)c1ccccc1NC(=O)c1ccccc1C(=O)O [Compound N13]	** (chondrogenic nodules formed in at least 25% but less than 50% of cells)
NC(=O)NCc1ccc(NC(=O)c2ccccc2C(=O)O)cc1 [PM10]	** (chondrogenic nodules formed in at least 25% but less than 50% of cells)
O=C(O)c1ccccc1C(=O)Nc1ccc(COc2ccccc2)cc1 [PM02]	** (chondrogenic nodules formed in at least 25% but less than 50% of cells)
O=C(O)c1ccccc1C(=O)Nc1ccc(P(=O)(O)O)cc1 [PA08]	** (chondrogenic nodules formed in at least 25% but less than 50% of cells)
O=C(O)c1ccccc1C(=O)Nc1ccccc1CO [Compound N20]	** (chondrogenic nodules formed in at least 25% but less than 50% of cells)
N#Cc1ccc(S(=O)(=O)Nc2ccccc2C(=O)O)cc1 [Compound R07]	** (chondrogenic nodules formed in at least 25% but less than 50% of cells)
N#Cc1cccc(NC(=O)c2ccccc2C(=O)O)c1 [Compound N19]	*** (chondrogenic nodules formed in at least 50% but less than 75% of cells)
O=C(O)c1ccc2c(c1)C(=O)N(Cc1ccccc1C(=O)O)C2=O [MS39]	*** (chondrogenic nodules formed in at least 50% but less than 75% of cells)
O=C(O)c1ccccc1C(=O)Nc1ccc(-c2nn[nH]n2)cc1 [PA06]	*** (chondrogenic nodules formed in at least 50% but less than 75% of cells)
O=C(O)c1ccccc1C(=O)Nc1ccc(-c2ccccn2)cc1 [PM05]	** (chondrogenic nodules formed in at least 25% but less than 50% of cells)
O=C(O)c1ccccc1C(=O)Nc1ccc(S(=O)(=O)O)cc1 [PA07]	*** (chondrogenic nodules formed in at least 50% but less than 75% of cells)
O=C(O)c1ccccc1C(=O)Nc1ccc(N2CCOCC2)cc1 [Compound N28]	** (chondrogenic nodules formed in at least 25% but less than 50% of cells)
O=C(O)c1ccccc1C(=O)NCC1CCC(C(=O)O)CC1 (centres unmarked) [Compound N33]	** (chondrogenic nodules formed in at least 25% but less than 50% of cells)
O=C(O)c1ccccc1C(=O)Nc1ccc(-c2ncc[nH]2)cc1 [PM18]	** (chondrogenic nodules formed in at least 25% but less than 50% of cells)
CC(=O)c1ccc(NC(=O)c2ccccc2C(=O)O)cc1 [Compound N09]	** (chondrogenic nodules formed in at least 25% but less than 50% of cells)
O=C(O)c1ccccc1C(=O)Nc1ccccc1OC(F)F [Compound N04]	*** (chondrogenic nodules formed in at least 50% but less than 75% of cells)
NC(=O)c1cccc(NC(=O)c2ccccc2C(=O)O)c1 [Compound N11]	** (chondrogenic nodules formed in at least 25% but less than 50% of cells)
N#Cc1ccc(NC(=O)c2ccccc2NC(N)=O)cc1 [Compound A12]	** (chondrogenic nodules formed in at least 25% but less than 50% of cells)
O=C(O)c1ccccc1C(=O)Nc1nc(-c2ccccc2)co1 [Compound N38]	** (chondrogenic nodules formed in at least 25% but less than 50% of cells)
N#Cc1ccc(NC(=O)c2ccccc2S(N)(=O)=O)cc1 [Compound A23]	** (chondrogenic nodules formed in at least 25% but less than 50% of cells)
CNS(=O)(=O)c1ccccc1C(=O)Nc1ccc(C#N)cc1 [Compound A24]	** (chondrogenic nodules formed in at least 25% but less than 50% of cells)
N#Cc1ccc(NC(=O)c2ccccc2C#N)cc1 [Compound A01]	** (chondrogenic nodules formed in at least 25% but less than 50% of cells)
N#Cc1ccc(NC(=O)c2ccccc2CC(=O)O)cc1 [Compound A06]	*** (chondrogenic nodules formed in at least 50% but less than 75% of cells)
N#Cc1ccc(NC(=O)c2ccc(C#N)cc2C(=O)O)cc1 [Compound B02]	** (chondrogenic nodules formed in at least 25% but less than 50% of cells)
N#Cc1cccc2[nH]c(-c3ccccc3C(=O)O)nc12 [Compound R01]	** (chondrogenic nodules formed in at least 25% but less than 50% of cells)
O=C(Cc1ccc(C(=O)O)cc1)Nc1ccccc1C(=O)O [MS14]	** (chondrogenic nodules formed in at least 25% but less than 50% of cells)

Compound	Activity (chondrogenic nodules formed in % of cells)
O=C(O)c1ccccc1C(=O)Nc1ncco1 [Compound N35]	** (chondrogenic nodules formed in at least 25% but less than 50% of cells)
N#CC1CCC(NC(=O)c2ccccc2C(=O)O)CC1 (centres unmarked) [Compound N30]	** (chondrogenic nodules formed in at least 25% but less than 50% of cells)
N#Cc1ccc(NC(=O)c2c(C(=O)O)cccc2C(=O)O)cc1 [Compound B12]	** (chondrogenic nodules formed in at least 25% but less than 50% of cells)
O=C(O)c1cccc(CNC(=O)c2ccccc2C(=O)O)c1 [MS02]	** (chondrogenic nodules formed in at least 25% but less than 50% of cells)
O=C(O)c1ccccc1C(=O)Nc1cncs1 [Compound N42]	*** (chondrogenic nodules formed in at least 50% but less than 75% of cells)
N#Cc1ccc(NC(=O)Nc2ccccc2C(=O)O)cc1 [Compound R10]	** (chondrogenic nodules formed in at least 25% but less than 50% of cells)
N#Cc1ccc(N2Cc3ccccc3C2=O)cc1 [MS26]	** (chondrogenic nodules formed in at least 25% but less than 50% of cells)
N#Cc1ccc2nc(-c3ccccc3C(=O)O)sc2c1 [Compound R06-1]	** (chondrogenic nodules formed in at least 25% but less than 50% of cells)
N#Cc1ccc(NC(=O)c2cccnc2C(=O)O)cc1 [Compound B20]	** (chondrogenic nodules formed in at least 25% but less than 50% of cells)
NC(=O)c1ccccc1NC(=O)c1ccccc1C(=O)O [Compound N10]	** (chondrogenic nodules formed in at least 25% but less than 50% of cells)
N#Cc1ccc(C(=O)CC2OC(=O)c3ccccc32)cc1 (centres unmarked) [MS17-1]	*** (chondrogenic nodules formed in at least 50% but less than 75% of cells)
N#Cc1ccc(NC(=O)c2ccc(C(=O)O)cc2C(=O)O)cc1 [Compound B10]	** (chondrogenic nodules formed in at least 25% but less than 50% of cells)
O=C(O)c1ccccc1C(=O)NC1CCC(C(=O)O)CC1 (centres unmarked) [Compound N31]	** (chondrogenic nodules formed in at least 25% but less than 50% of cells)
O=C(O)c1ccccc1CNC(=O)c1ccccc1C(=O)O [MS01]	*** (chondrogenic nodules formed in at least 50% but less than 75% of cells)
O=C(O)c1ccccc1C(=O)Nc1ncccn1 [Compound N50]	** (chondrogenic nodules formed in at least 25% but less than 50% of cells)
CC(=O)c1cccc(NC(=O)c2ccccc2C(=O)O)c1 [Compound N08]	**** (chondrogenic nodules formed in at least 75% of cells)
N#Cc1ccc(NC(=O)c2ccncc2C(=O)O)cc1 [Compound B19]	*** (chondrogenic nodules formed in at least 50% but less than 75% of cells)
O=C(O)c1ccccc1C(=O)Nc1nc(-c2ccccc2)cs1 [Compound N39]	** (chondrogenic nodules formed in at least 25% but less than 50% of cells)
O=C(NO)c1ccc(NC(=O)c2ccccc2C(=O)O)cc1 [PA02]	** (chondrogenic nodules formed in at least 25% but less than 50% of cells)
O=C(O)c1ccc(/C=C/C(=O)c2ccccc2C(=O)O)cc1 [MS16]	** (chondrogenic nodules formed in at least 25% but less than 50% of cells)
N#Cc1ccc(/C=C/C(=O)c2ccccc2C(=O)O)cc1 [MS15, 2-[(2E)-3-(4-cyanophenyl)prop-2-enoyl]benzoic acid]	*** (chondrogenic nodules formed in at least 50% but less than 75% of cells)
COC(=O)Nc1ccccc1C(=O)Nc1ccc(C#N)cc1 [Compound A11]	** (chondrogenic nodules formed in at least 25% but less than 50% of cells)
N#Cc1ccc(CNC(=O)c2ccccc2C(=O)O)cc1 [MS06]	** (chondrogenic nodules formed in at least 25% but less than 50% of cells)
N#Cc1ccc(NC(=O)c2cc(C#N)ccc2C(=O)O)cc1 [Compound B03, sodium 4-cyano-2-[(4-cyanophenyl)carbamoyl]benzoate]	*** (chondrogenic nodules formed in at least 50% but less than 75% of cells)
O=C(O)c1ccccc1C(=O)Nc1ccncc1 [Compound N01]	*** (chondrogenic nodules formed in at least 50% but less than 75% of cells)

Same assay, conditions: Homo sapiens, Mesenchymal stem cells; first value of the cell (before the slash); read-out: CHONDROGENIC μM EC50

Compound	EC50
O=C(O)c1ccccc1C(=O)Nc1nnc(-c2ccccc2)s1 [LK57, 2-((5-phenyl-1,3,4-thiadiazol-2-yl)carbamoyl)benzoic acid]	> 10 µM
N#Cc1ccccc1NC(=O)c1ccccc1C(=O)O [LK13b]	> 10 µM
